The target of one test is T1, human NaPi-IIb (Homo sapiens, UniProt O95436).
T1 construct: expressed in transfected cells
T1 sequence (O95436 1-690): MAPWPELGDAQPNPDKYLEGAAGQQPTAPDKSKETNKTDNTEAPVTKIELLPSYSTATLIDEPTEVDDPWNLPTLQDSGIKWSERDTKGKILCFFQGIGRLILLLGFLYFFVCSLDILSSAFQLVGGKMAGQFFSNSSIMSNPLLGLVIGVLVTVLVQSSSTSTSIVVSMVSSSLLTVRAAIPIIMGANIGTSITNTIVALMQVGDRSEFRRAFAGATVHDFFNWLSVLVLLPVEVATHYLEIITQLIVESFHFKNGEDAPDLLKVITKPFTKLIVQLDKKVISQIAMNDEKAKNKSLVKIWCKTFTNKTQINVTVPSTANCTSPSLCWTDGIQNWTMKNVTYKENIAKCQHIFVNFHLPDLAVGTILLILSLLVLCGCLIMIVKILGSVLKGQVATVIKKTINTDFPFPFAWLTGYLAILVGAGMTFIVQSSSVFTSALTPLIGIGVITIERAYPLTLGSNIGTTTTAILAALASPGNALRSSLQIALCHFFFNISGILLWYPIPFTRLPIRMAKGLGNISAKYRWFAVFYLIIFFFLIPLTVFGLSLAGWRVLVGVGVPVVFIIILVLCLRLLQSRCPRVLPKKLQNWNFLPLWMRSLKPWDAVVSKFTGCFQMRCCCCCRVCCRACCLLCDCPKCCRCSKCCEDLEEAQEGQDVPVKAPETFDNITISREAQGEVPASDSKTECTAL
Put plainly: Inhibition of 33P uptake in human NaPi-IIb T-REX-CHO stable cell line. It is filed as cell-based. Conditions: 60 min at RT, geometric mean (SD), read-out: h NaPi-IIb rel IC50 (nM), (SD). Here is the method:
Inhibition of ^33P uptake is measured in human and mouse NaPi-IIb T-REX™-CHO stable cell lines. cDNA for NaPi-IIb is subcloned in plasmid SLC34A2 pcDNA5/TO (human) and SLC34A2 pcDNA5/TO (mouse) and stable cell lines are generated from clonal isolation for both human and mouse respectively. Mouse and human stable lines are maintained in continuous culture in growth media (Dulbecco's Modified Eagle Medium: Nutrient Mixture F-12 (3:1), 10% Heat Inactivated FBS, 1% penicillin/streptomycin/FUNGIEZONE® (HYCLONE™), 20 mM HEPES, 250 μg/mL hygromycin, 5 μg/mL blasticidin). […] Cell plates may remain in the incubator until ready to be assayed. […] The plate is immediately read on a Wallac MICROBETA® Trilux liquid scintillation counter and luminometer after stop solution is added with 1 minute count per well. […] Percent inhibition at all concentrations tested (final assay concentrations 100-0.005 μM) are calculated relative to 1% DMSO (minimum effect), and the effect of 100 μM of a fully efficacious NaPi-IIb inhibitor (maximum effect). IC50 values were calculated using a 4 parameter logistic curve fitting equation. The numbers presented are the geometric means with standard deviation (SD) calculated where n is the number of runs. […]

In another test the target is T2, murine NaPi-IIb (Mus musculus, UniProt Q9DBP0).
T2 construct: expressed in transfected cells
T2 sequence (Q9DBP0 1-697): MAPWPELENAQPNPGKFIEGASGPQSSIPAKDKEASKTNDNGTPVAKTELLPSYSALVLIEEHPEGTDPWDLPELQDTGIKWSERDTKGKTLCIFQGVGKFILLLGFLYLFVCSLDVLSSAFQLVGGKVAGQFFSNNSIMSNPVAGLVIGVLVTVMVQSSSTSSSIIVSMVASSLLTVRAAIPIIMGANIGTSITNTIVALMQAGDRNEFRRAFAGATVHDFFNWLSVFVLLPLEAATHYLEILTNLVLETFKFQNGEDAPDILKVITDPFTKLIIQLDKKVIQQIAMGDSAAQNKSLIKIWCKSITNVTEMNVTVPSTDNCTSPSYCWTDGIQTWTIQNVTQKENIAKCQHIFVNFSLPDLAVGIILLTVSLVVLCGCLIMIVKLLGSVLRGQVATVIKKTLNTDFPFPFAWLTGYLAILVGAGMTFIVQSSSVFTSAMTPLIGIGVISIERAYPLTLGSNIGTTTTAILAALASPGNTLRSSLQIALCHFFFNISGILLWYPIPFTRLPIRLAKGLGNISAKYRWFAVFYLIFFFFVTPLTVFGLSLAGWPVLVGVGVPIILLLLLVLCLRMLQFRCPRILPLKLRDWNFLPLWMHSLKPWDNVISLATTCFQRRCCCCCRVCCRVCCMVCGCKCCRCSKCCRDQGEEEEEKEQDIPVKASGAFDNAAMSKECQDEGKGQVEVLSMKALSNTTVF
Briefly: Inhibition of 33P uptake in mouse NaPi-IIb T-REX-CHO stable cell line. It is filed as cell-based. To be noted: 60 min at RT, geometric mean (SD), read-out: m NaPi-IIb rel IC50 (nM), (SD). Here is the method:
Inhibition of ^33P uptake is measured in human and mouse NaPi-IIb T-REX™-CHO stable cell lines. cDNA for NaPi-IIb is subcloned in plasmid SLC34A2 pcDNA5/TO (human) and SLC34A2 pcDNA5/TO (mouse) and stable cell lines are generated from clonal isolation for both human and mouse respectively. Mouse and human stable lines are maintained in continuous culture in growth media (Dulbecco's Modified Eagle Medium: Nutrient Mixture F-12 (3:1), 10% Heat Inactivated FBS, 1% penicillin/streptomycin/FUNGIEZONE® (HYCLONE™), 20 mM HEPES, 250 μg/mL hygromycin, 5 μg/mL blasticidin). Cells are harvested from T225 cell culture flasks (CORNING®) using 0.25% Trypsin, and plated in 96 well CYTOSTAR-T™ scintillating microplates (Amersham Systems) at 40,000 cells/well in 100 μL of growth media plus 100 ng/mL of tetracycline. Cell plates are incubated overnight at 37° C. and 5% C02. The next day, compounds are serially diluted using one to three dilutions in 100% DMSO. Cell plates may remain in the incubator until ready to be assayed. A cell plate is removed from the incubator and media removed. Cells are washed 3 times with 200 μL assay buffer (137 mM NaCl, 5.4 mM KCl, 2.8 mM CaCl2), 1.2 mM MgSO4, and 14 mM Tris-HCl buffer, pH˜7.5), removing buffer in between washes. Serially diluted compounds in DMSO are further diluted 50 fold in assay buffer and 50 μL added to the CYTOSTAR-T™ assay plate, immediately followed by the addition of 50 μL of ^33P solution (PERKIN-ELMER®, Walton, Mass.; 0.05 μCi/50 μL). CYTOSTAR-T™ assay plates are covered with foil to protect from light and incubated for 60 min at RT. After the 60 min incubation, 100 μL of a stop solution (assay buffer+400 μM Phloretin) is added to the assay plate to stop ^33P uptake. The plate is immediately read on a Wallac MICROBETA® Trilux liquid scintillation counter and luminometer after stop solution is added with 1 minute count per well. Each plate may be processed separately and staggered in time so there may be no delay in counting after stop solution is added. Percent inhibition at all concentrations tested (final assay concentrations 100-0.005 μM) are calculated relative to 1% DMSO (minimum effect), and the effect of 100 μM of a fully efficacious NaPi-IIb inhibitor (maximum effect). IC50 values were calculated using a 4 parameter logistic curve fitting equation. The numbers presented are the geometric means with standard deviation (SD) calculated where n is the number of runs. Thus. Table 1 describes the relative IC50 values for Examples 1-28 against human NaPi-IIb and murine NaPi-IIb, respectively.

Molecules are shown by their SMILES.

Usually IC50 stands for the concentration at which inhibition is half-maximal.

Consider `CN1CCN(CC(=O)N2C3CCC2CN(Cc2cccc(C(=O)Nc4sc5c(c4C(=O)Nc4cc(F)c(CCc6ccc(C(=O)O)cc6)c(F)c4)CCCC5)c2)C3)CC1` [Example 26, 4-[2-[2,6-difluoro-4-[[2-[[3-[[8-[2-(4-methylpiperazin-1-yl)acetyl]-3,8-diazabicyclo[3.2.1]octan-3-yl]methyl]benzoyl]amino]-4,5,6,7-tetrahydrobenzothiophene-3-carbonyl]amino]phenyl]ethyl]benzoic Acid], for which the half-maximal inhibitory concentration (IC50) at human NaPi-IIb was 2.4 nM; at murine NaPi-IIb, 15.3 nM.

(Values after patent US10934280B2, “Condensed thiophene derivatives useful as NaPi-IIb inhibitors” (Eli Lilly and Company, priority 2016, dated 2021).)
